From paper PMC6891286, “Towards the Development of an In vivo Chemical Probe for Cyclin G Associated Kinase (GAK)” (Molecules, 2019)

Assays:
Assay in all cases: KINOMEscan
Assay type in all cases: binding
Conditions in all cases: 35 at 1 µM; read-out: % inhibition
[1] = target: T1, RIOK2 (Homo sapiens, UniProt Q9BVS4)
T1 construct: purchased Eurofins DiscoverX (KINOMEscan)
Description: (§1) KinomeScan Assay on 35 was performed as previously described at EuroFins DiscoverX (Fremont, CA, USA).

[2] = target: T2, PIM1 (Homo sapiens, UniProt P11309)
T2 construct: purchased Eurofins DiscoverX (KINOMEscan)
Description: as §1

[3] = target: T3, LCK (Homo sapiens, UniProt P06239)
T3 construct: purchased Eurofins DiscoverX (KINOMEscan)
Description: as §1

[4] = target: T4, PRKG1 (Homo sapiens, UniProt Q13976)
T4 construct: purchased Eurofins DiscoverX (KINOMEscan)
Description: as §1

[5] = target: T5, AURKA (Homo sapiens, UniProt O14965)
T5 construct: purchased Eurofins DiscoverX (KINOMEscan)
Description: as §1

[6] = target: T6, JAK2(JH1domain-catalytic) (Homo sapiens, UniProt O60674)
T6 construct: JAK2(JH1domain-catalytic); purchased Eurofins DiscoverX (KINOMEscan)
Description: as §1

[7] = target: T7, PYK2 (Homo sapiens, UniProt Q14289)
T7 construct: purchased Eurofins DiscoverX (KINOMEscan)
Description: as §1

[8] = target: T8, PIK3CA(Q546K) (Homo sapiens, UniProt P42336, Q546K)
T8 construct: purchased Eurofins DiscoverX (KINOMEscan)
Description: as §1

[9] = target: T9, FLT3(D835Y) (Homo sapiens, UniProt P36888, D835Y)
T9 construct: purchased Eurofins DiscoverX (KINOMEscan)
Description: as §1

[10] = target: T10, NEK3 (Homo sapiens, UniProt P51956)
T10 construct: purchased Eurofins DiscoverX (KINOMEscan)
Description: as §1

[11] = target: T11, MARK2 (Homo sapiens, UniProt Q7KZI7)
T11 construct: purchased Eurofins DiscoverX (KINOMEscan)
Description: as §1

[12] = target: T12, FYN (Homo sapiens, UniProt P06241)
T12 construct: purchased Eurofins DiscoverX (KINOMEscan)
Description: as §1

[13] = target: T13, HIPK1 (Homo sapiens, UniProt Q86Z02)
T13 construct: purchased Eurofins DiscoverX (KINOMEscan)
Description: as §1

[14] = target: T14, SGK3 (Homo sapiens, UniProt Q96BR1)
T14 construct: purchased Eurofins DiscoverX (KINOMEscan)
Description: as §1

[15] = target: T15, ADCK4 (Homo sapiens, UniProt Q96D53)
T15 construct: purchased Eurofins DiscoverX (KINOMEscan)
Description: as §1

[16] = target: T16, FAK (Homo sapiens, UniProt Q05397)
T16 construct: purchased Eurofins DiscoverX (KINOMEscan)
Description: as §1

[17] = target: T17, PDGFRB (Homo sapiens, UniProt P09619)
T17 construct: purchased Eurofins DiscoverX (KINOMEscan)
Description: as §1

[18] = target: T18, ASK2 (Homo sapiens, UniProt O95382)
T18 construct: purchased Eurofins DiscoverX (KINOMEscan)
Description: as §1

[19] = target: T19, CSK (Homo sapiens, UniProt P41240)
T19 construct: purchased Eurofins DiscoverX (KINOMEscan)
Description: as §1

[20] = target: T20, PHKG1 (Homo sapiens, UniProt Q16816)
T20 construct: purchased Eurofins DiscoverX (KINOMEscan)
Description: as §1

[21] = target: T21, MYO3B (Homo sapiens, UniProt Q8WXR4)
T21 construct: purchased Eurofins DiscoverX (KINOMEscan)
Description: as §1

[22] = target: T22, FRK (Homo sapiens, UniProt P42685)
T22 construct: purchased Eurofins DiscoverX (KINOMEscan)
Description: as §1

[23] = target: T23, SRPK2 (Homo sapiens, UniProt P78362)
T23 construct: purchased Eurofins DiscoverX (KINOMEscan)
Description: as §1

[24] = target: T24, ZAP70 (Homo sapiens, UniProt P43403)
T24 construct: purchased EuroFins DiscoverX (Fremont, CA, USA)
Description: as §1

[25] = target: T25, MAP3K2 (Homo sapiens, UniProt Q9Y2U5)
T25 construct: purchased Eurofins DiscoverX (KINOMEscan)
Description: as §1

[26] = target: T26, PKAC-beta (Homo sapiens, UniProt P22694)
T26 construct: purchased Eurofins DiscoverX (KINOMEscan)
Description: as §1

[27] = target: T27, MKNK2 (Homo sapiens, UniProt Q9HBH9)
T27 construct: purchased Eurofins DiscoverX (KINOMEscan)
Description: as §1

[28] = target: T28, LRRK2(G2019S) (Homo sapiens, UniProt Q5S007, G2019S)
T28 construct: purchased Eurofins DiscoverX (KINOMEscan)
Description: as §1

[29] = target: T29, PAK7 (Homo sapiens, UniProt Q9P286)
T29 construct: purchased Eurofins DiscoverX (KINOMEscan)
Description: as §1

[30] = target: T30, EPHA2 (Homo sapiens, UniProt P29317)
T30 construct: purchased Eurofins DiscoverX (KINOMEscan)
Description: as §1

[31] = target: T31, DMPK2 (Homo sapiens, UniProt Q6DT37)
T31 construct: purchased Eurofins DiscoverX (KINOMEscan)
Description: as §1

[32] = target: T32, PLK4 (Homo sapiens, UniProt O00444)
T32 construct: purchased Eurofins DiscoverX (KINOMEscan)
Description: as §1

[33] = target: T33, NEK6 (Homo sapiens, UniProt Q9HC98)
T33 construct: purchased Eurofins DiscoverX (KINOMEscan)
Description: as §1

[34] = target: T34, KIT(L576P) (Homo sapiens, UniProt P10721, L576P)
T34 construct: purchased Eurofins DiscoverX (KINOMEscan)
Description: as §1

[35] = target: T35, PCTK1 (Homo sapiens, UniProt Q00536)
T35 construct: purchased Eurofins DiscoverX (KINOMEscan)
Description: as §1

[36] = target: T36, ASK1 (Homo sapiens, UniProt Q99683)
T36 construct: purchased Eurofins DiscoverX (KINOMEscan)
Description: as §1

[37] = target: T37, PLK3 (Homo sapiens, UniProt Q9H4B4)
T37 construct: purchased Eurofins DiscoverX (KINOMEscan)
Description: as §1

[38] = target: T38, SgK110 (Homo sapiens, UniProt P0C264)
T38 construct: purchased Eurofins DiscoverX (KINOMEscan)
Description: as §1

[39] = target: T39, VPS34 (Homo sapiens, UniProt Q8NEB9)
T39 construct: purchased Eurofins DiscoverX (KINOMEscan)
Description: as §1

[40] = target: T40, PKAC-alpha (Homo sapiens, UniProt P17612)
T40 construct: purchased Eurofins DiscoverX (KINOMEscan)
Description: as §1

[41] = target: T41, TRPM6 (Homo sapiens, UniProt Q9BX84)
T41 construct: purchased Eurofins DiscoverX (KINOMEscan)
Description: as §1

[42] = target: T42, ERK5 (Homo sapiens, UniProt Q13164)
T42 construct: purchased Eurofins DiscoverX (KINOMEscan)
Description: as §1

[43] = target: T43, ACVR2A (Homo sapiens, UniProt P27037)
T43 construct: purchased Eurofins DiscoverX (KINOMEscan)
Description: as §1

Measured: activity at 1 µM

T23 sequence (P78362 whole entry): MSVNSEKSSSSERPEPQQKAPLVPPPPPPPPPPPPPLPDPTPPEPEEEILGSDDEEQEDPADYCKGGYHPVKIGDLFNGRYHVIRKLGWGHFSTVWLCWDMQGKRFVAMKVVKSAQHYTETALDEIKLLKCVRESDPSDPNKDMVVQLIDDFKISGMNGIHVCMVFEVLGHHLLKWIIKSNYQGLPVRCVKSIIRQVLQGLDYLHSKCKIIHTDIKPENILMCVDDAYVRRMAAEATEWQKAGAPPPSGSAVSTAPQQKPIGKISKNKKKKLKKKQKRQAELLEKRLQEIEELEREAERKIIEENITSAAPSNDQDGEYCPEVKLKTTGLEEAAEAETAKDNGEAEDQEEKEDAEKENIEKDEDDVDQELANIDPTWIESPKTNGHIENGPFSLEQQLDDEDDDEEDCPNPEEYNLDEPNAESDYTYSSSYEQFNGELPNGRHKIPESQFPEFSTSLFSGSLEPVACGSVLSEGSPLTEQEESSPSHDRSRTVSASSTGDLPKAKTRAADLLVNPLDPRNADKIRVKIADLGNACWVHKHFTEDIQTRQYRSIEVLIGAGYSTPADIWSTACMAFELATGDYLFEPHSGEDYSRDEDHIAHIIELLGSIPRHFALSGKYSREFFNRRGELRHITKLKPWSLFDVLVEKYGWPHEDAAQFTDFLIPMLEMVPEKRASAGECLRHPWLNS
T12 sequence (P06241 whole entry): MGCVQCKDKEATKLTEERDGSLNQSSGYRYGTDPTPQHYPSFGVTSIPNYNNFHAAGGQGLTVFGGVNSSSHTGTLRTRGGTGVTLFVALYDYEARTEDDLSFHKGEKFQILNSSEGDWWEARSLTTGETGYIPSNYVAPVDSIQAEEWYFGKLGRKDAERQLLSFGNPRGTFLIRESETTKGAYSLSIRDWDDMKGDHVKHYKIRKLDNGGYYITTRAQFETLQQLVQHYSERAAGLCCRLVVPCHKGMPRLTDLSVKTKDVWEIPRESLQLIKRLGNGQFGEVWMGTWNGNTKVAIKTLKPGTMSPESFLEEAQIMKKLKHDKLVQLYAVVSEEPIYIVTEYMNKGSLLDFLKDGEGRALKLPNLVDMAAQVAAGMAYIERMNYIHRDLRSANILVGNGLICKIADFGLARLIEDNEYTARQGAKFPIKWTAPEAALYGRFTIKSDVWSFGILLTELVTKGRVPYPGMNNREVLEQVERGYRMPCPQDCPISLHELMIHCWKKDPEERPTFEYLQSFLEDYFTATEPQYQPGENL
T10 sequence (P51956 whole entry): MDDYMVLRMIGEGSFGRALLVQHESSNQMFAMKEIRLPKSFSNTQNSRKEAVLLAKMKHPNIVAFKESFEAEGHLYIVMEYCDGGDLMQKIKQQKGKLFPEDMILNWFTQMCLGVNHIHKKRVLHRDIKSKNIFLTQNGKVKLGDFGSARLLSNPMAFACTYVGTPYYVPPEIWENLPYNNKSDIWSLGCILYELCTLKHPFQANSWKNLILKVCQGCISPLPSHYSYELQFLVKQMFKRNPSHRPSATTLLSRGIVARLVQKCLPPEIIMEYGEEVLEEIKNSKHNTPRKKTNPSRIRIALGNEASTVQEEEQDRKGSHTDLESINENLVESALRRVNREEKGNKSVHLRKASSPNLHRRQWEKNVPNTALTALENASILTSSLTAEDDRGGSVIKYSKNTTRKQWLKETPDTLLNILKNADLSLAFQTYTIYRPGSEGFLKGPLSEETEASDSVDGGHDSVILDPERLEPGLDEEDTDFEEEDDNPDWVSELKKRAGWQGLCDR
T35 sequence (Q00536 whole entry): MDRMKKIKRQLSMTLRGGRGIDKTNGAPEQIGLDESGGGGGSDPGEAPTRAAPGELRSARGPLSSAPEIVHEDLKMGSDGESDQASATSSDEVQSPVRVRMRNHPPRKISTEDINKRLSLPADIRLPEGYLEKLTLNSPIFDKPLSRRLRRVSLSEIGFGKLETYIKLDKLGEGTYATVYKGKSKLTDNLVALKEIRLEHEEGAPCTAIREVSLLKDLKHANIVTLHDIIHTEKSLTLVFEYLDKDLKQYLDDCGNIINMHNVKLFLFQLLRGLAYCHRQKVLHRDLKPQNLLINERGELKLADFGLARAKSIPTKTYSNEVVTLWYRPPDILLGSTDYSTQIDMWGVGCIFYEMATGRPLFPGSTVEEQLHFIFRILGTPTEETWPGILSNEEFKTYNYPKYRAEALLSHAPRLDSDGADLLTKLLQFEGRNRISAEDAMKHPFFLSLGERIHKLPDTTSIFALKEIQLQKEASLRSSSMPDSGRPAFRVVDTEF
T8 sequence (P42336 whole entry Q546K): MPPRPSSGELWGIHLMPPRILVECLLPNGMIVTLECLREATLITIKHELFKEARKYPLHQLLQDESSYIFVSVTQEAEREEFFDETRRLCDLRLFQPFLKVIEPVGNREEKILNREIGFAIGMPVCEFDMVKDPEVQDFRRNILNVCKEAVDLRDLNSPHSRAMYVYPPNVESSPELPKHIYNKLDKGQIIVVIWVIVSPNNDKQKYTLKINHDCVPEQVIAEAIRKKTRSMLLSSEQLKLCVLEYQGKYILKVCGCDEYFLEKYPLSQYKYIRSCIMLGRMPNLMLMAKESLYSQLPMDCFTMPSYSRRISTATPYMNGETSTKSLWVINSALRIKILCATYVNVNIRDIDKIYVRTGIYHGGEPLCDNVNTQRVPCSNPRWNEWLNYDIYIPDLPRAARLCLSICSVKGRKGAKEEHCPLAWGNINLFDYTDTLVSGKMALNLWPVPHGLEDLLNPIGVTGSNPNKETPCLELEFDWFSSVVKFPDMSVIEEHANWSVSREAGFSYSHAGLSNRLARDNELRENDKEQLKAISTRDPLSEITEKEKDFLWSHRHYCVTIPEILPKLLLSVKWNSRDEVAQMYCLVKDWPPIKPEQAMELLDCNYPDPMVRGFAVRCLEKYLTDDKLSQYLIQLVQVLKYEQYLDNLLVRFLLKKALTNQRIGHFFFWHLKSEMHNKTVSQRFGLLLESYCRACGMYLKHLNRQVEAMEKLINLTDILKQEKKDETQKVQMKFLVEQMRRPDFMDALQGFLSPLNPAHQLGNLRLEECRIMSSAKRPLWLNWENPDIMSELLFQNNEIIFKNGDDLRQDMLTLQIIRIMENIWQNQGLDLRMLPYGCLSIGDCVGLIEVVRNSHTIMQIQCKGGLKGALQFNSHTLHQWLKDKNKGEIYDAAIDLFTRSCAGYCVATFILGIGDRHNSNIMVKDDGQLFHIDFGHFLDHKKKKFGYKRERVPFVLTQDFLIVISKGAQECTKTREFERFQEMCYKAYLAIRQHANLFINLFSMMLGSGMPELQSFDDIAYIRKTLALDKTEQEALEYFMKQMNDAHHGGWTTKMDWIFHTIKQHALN
T1 sequence (Q9BVS4 whole entry): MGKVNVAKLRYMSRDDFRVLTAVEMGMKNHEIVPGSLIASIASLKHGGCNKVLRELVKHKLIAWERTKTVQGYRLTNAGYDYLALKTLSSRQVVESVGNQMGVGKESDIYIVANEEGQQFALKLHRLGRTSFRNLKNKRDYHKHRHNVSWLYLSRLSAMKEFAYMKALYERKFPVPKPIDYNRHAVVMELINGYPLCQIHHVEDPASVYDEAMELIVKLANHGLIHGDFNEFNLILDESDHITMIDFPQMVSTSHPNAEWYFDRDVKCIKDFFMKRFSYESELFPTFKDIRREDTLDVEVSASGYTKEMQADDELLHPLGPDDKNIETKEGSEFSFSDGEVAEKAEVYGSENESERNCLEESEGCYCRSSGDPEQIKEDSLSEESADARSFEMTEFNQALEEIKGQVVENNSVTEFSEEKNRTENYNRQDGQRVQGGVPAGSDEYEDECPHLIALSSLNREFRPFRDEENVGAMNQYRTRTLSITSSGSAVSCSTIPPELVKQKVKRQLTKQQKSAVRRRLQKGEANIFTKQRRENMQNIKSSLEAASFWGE
T19 sequence (P41240 whole entry): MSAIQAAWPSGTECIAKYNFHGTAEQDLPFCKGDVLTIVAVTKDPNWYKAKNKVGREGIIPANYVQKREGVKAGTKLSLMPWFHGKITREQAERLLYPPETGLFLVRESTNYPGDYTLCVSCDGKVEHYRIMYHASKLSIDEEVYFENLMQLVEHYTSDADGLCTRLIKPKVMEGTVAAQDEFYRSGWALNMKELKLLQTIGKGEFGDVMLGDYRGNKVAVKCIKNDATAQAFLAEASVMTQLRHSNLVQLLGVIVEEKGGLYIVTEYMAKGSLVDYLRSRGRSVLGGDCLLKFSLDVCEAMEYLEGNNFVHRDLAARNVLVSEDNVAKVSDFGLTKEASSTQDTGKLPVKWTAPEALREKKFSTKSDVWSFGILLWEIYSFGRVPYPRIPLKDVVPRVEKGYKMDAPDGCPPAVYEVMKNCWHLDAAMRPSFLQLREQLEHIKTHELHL
T14 sequence (Q96BR1 whole entry): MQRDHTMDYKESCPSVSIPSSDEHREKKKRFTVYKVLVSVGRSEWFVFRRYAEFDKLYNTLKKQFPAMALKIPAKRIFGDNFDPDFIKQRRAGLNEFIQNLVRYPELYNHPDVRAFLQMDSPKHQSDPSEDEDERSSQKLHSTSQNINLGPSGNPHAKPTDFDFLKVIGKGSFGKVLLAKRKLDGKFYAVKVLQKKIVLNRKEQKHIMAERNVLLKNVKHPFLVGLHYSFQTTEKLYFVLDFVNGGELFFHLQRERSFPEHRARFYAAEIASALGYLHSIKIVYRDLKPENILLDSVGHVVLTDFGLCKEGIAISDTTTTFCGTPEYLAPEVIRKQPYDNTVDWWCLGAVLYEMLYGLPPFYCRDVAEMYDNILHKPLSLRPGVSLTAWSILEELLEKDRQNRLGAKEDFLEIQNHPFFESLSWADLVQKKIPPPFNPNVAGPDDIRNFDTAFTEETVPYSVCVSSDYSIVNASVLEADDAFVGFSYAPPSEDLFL

Brc1ccc2nccc(Nc3ccc4cn[nH]c4c3)c2c1 [Compound 35, 6-Bromo-N-(1H-indazol-6-yl)quinolin-4-amine]
63%: [27]
53%: [13]
99%: [16]
98%: [6] | [35] | [40]
89%: [10]
73%: [28] | [31]
100%: all other assays above
